Measurements taken from PMC8704606, “The Artemiside-Artemisox-Artemisone-M1 Tetrad: Efficacies against Blood Stage P. falciparum Parasites, DMPK Properties, and the Case for Artemiside” (Pharmaceutics, 2021).
Like-named read-outs stand apart in the source and are kept apart here.

Assays:
[1] = Cytotoxicity (LDH assay) against HepG2 cells; assay type: cell-based; settings: human, HepG2 cells (hepatocellular carcinoma)
Procedure: Cytotoxicity against mammalian hepatocellular carcinoma cells (HepG2 cells) was determined using the lactate dehydrogenase assay (LDH, Biovision Inc., Milpitas, CA, USA). […] Compound working solutions were prepared from 10 mM stock solutions (100% DMSO) in complete DMEM to a final DMSO (Sigma-Aldrich) conc. of <0.1% (vol/vol). […] Data analysis was performed using GraphPad Prism (version 6) software.

[2] = Pharmacokinetics and metabolism after iv and po administration; assay type: in vivo; settings: for half-life: mean ± SD, read-out: t½ (converted); for MRT last: read-out: MRT0-last; for AUC(0-t): up to 7 h
Procedure: The plasma concentration-time profiles of the parent compounds and metabolites after administration iv and po to male C57/BL6 mice are presented in Figure 2, Figure 3 and Figure 4. Artemiside was quantifiable up to 24 h in all mice dosed iv and up to 7 h po (lower limit of quantitation LLOQ = 1.6 ng/mL or 0.004 μM) (Figure 2). […] For both artemiside and artemisox, the metabolite artemisone was quantifiable up to 3 h in both the po and iv groups (Figure 2 and Figure 3). Thereby it is confirmed that artemiside is rapidly converted via artemisox into artemisone. Artemisone itself was quantifiable up to three hours post dose (Figure 4). The mean circulating concentrations for the compounds and their metabolites are presented in Table S3a–f in the Supplementary Material 1. The metabolite M1 was also detected upon administration of artemiside, artemisox, and artemisone, but it was not quantified here; chromatograms indicating the presence of M1 are illustrated in Figure S3a–c in the Supplementary Material 1. In addition, the plasma concentration-time curves for artemiside and its metabolites artemisone and M1 following iv and po dosing in the same murine model are presented and discussed in detail elsewhere (cf. Figure 4 in reference).
All work was conducted with prior approval of the animal ethics committee of the University of Cape Town in accordance with the South African National Standards for the Care and Use of Animals for Scientific Purposes and guidelines from the South African Department of Health. The requirements and methods for the pharmacokinetics in vivo involving po and iv drug administration, sample extraction, analyses of samples by LC-MS/MS, and data analyses are described elsewhere. For the animal experiments and formulations, the compounds were dissolved in a 10:60:30 mixture of N,N-dimethylacetamide-polypropylene glycol-polyethylene glycol for intravenous dosing (iv) at 5 mg/kg. For the oral dose (po), compounds were individually dosed as a suspension in 0.5% (w/v) hydroxypropylmethylcellulose in water with 0.2% Tween80 at 50 mg/kg to male C57/BL6 mice (n = 3 for each group). For PK sampling, blood samples were collected at predetermined times (0.08, 0.25, 0.5, 1, 3, 5, 7, and 24 h) for both po and iv dosing via tail bleeding into heparinized tubes, centrifuged, and the plasma samples were stored at −80 °C until extraction. For preparation of samples, the frozen plasma samples were thawed and 15 μL was extracted by liquid–liquid extraction using a universal buffer (pH8) containing 10 ng/mL of the internal standard and ethyl acetate, and the extract was vortexed and centrifuged. Calibration standards and quality controls were extracted following the same procedure. Supernatants were dried down, reconstituted, and injected onto the column for LC-MS/MS analysis using an AB SCIEX 5500 QTRAP instrument coupled to an Agilent 1260 HPLC detection system as previously described.

[3] = system: Chinese hamster ovary (CHO) cells; set-up: method as in PMID 29866868, PMID 31998692; settings: other cell lines including CHO cells; read-out: EC50 cytotoxicity; cited from earlier work
[4] = system: asexual blood stages of Pf W2 (drug resistant); set-up: method as in PMID 29866868, PMID 31998692; settings: cited from earlier work
Toxoplasma gondii (Tg) [5] = system: Toxoplasma gondii (Tg); set-up: method as in PMID 19635951; settings: IFN-γ−/− female mice, 10 mg/kg/d for 8 days after cessation of sulfadiazine; cited from earlier work
[6] = system: asexual blood stages of Pf K1 (drug resistant); set-up: method as in PMID 29866868, PMID 31998692; settings: cited from earlier work
[7] = system: early-stage (EG) Pf NF54 gametocytes; set-up: method as in PMID 29866868; settings: early-stage gametocytes >95% stages II-III; 48 h incubation; ± SEM; cited from earlier work
Toxoplasma gondii (Tg) [8] = system: Toxoplasma gondii (Tg); set-up: method as in PMID 19635951; settings: read-out: EC50 against Tg in vitro; cited from earlier work
[9] = system: CQ-resistant P. yoelii NS strain; settings: cited from earlier work
[10] = male, C57/BL6, mouse, plasma, iv 5 mg/kg, parent drug
[11] = male, C57/BL6, mouse, plasma, po 50 mg/kg, parent drug

With `C[C@H]1[C@H](N2CCSCC2)O[C@@H]2O[C@@]3(C)CC[C@H]4[C@H](C)CC[C@@H]1[C@@]24OO3` [Artemiside 5, Artemiside] the IC50 at 24 h [1] was greater than 50000 nM, the “Mean po circulating concentration” value ([2]; 24 h after po 50 mg/kg artemiside 5) was “blq” and the “quantifiable/detectable in plasma up to” value ([2]; iv group, parent drug, LLOQ 1.6 ng/mL or 0.004 μM for artemiside) was “up to 24 h”. It also gave a concentration at 0.08 h ([2]; male, C57/BL6, mouse, plasma, iv, 5 mg/kg, 0.08 h after iv 5 mg/kg artemiside 5, read-out: Mean iv circulating concentration) of 6240 nM, a concentration at 0.25 h ([2]; male, C57/BL6, mouse, plasma, iv, 5 mg/kg, 0.25 h after iv 5 mg/kg artemiside 5, read-out: Mean iv circulating concentration) of 3560 nM and a concentration at 0.5 h ([2]; male, C57/BL6, mouse, plasma, iv, 5 mg/kg, 0.5 h after iv 5 mg/kg artemiside 5, read-out: Mean iv circulating concentration) of 1710 nM. The concentration at 1 h ([2]; male, C57/BL6, mouse, plasma, iv, 5 mg/kg, 1 h after iv 5 mg/kg artemiside 5, read-out: Mean iv circulating concentration) was 930 nM, the concentration at 3 h ([2]; male, C57/BL6, mouse, plasma, iv, 5 mg/kg, 3 h after iv 5 mg/kg artemiside 5, read-out: Mean iv circulating concentration) was 180 nM and the concentration at 5 h ([2]; male, C57/BL6, mouse, plasma, iv, 5 mg/kg, 5 h after iv 5 mg/kg artemiside 5, read-out: Mean iv circulating concentration) was 86 nM. It also gave a concentration at 7 h ([2]; male, C57/BL6, mouse, plasma, iv, 5 mg/kg, 7 h after iv 5 mg/kg artemiside 5, read-out: Mean iv circulating concentration) of 37 nM, a concentration at 24 h ([2]; male, C57/BL6, mouse, plasma, iv, 5 mg/kg, 24 h after iv 5 mg/kg artemiside 5, read-out: Mean iv circulating concentration) of 8 nM and a half-life ([2]; male, C57/BL6, mouse, plasma, iv, 5 mg/kg, iv 5 mg/kg, parent drug) of 1.2 ± 0.1 h. It also gave a concentration at 0.08 h ([2]; male, C57/BL6, mouse, plasma, po, 50 mg/kg, 0.08 h after po 50 mg/kg artemiside 5, read-out: Mean po circulating concentration) of 85 nM, a concentration at 0.25 h ([2]; male, C57/BL6, mouse, plasma, po, 50 mg/kg, 0.25 h after po 50 mg/kg artemiside 5, read-out: Mean po circulating concentration) of 109 nM and a concentration at 0.5 h ([2]; male, C57/BL6, mouse, plasma, po, 50 mg/kg, 0.5 h after po 50 mg/kg artemiside 5, read-out: Mean po circulating concentration) of 135 nM. The concentration at 1 h ([2]; male, C57/BL6, mouse, plasma, po, 50 mg/kg, 1 h after po 50 mg/kg artemiside 5, read-out: Mean po circulating concentration) was 119 nM, the concentration at 3 h ([2]; male, C57/BL6, mouse, plasma, po, 50 mg/kg, 3 h after po 50 mg/kg artemiside 5, read-out: Mean po circulating concentration) was 58 nM and the concentration at 5 h ([2]; male, C57/BL6, mouse, plasma, po, 50 mg/kg, 5 h after po 50 mg/kg artemiside 5, read-out: Mean po circulating concentration) was 12 nM. The concentration at 7 h ([2]; male, C57/BL6, mouse, plasma, po, 50 mg/kg, 7 h after po 50 mg/kg artemiside 5, read-out: Mean po circulating concentration) was 6 nM, the half-life ([2]; male, C57/BL6, mouse, plasma, po, 50 mg/kg, po 50 mg/kg, parent drug) was 1.4 ± 0.04 h and the clearance ([2]; male, C57/BL6, mouse, plasma, iv 5 mg/kg) was 58.3 mL/min/kg. The AUC(0-inf) [2, 10] was 3.9 ± 0.4 µM·h, the MRT last ([2]; male, C57/BL6, mouse, plasma, iv 5 mg/kg, parent drug, 0-last up to 7 h) was 1 ± 0.1 h and the AUC(0-t) [2, 10] was 3.8 ± 0.5 µM·h. It also gave a Vd ([2]; male, C57/BL6, mouse, plasma, iv 5 mg/kg, read-out: Vss) of 4.1 ± 0.5 L/kg, a Cmax [2, 11] of 130 ± 10 nM and an MRT last [2, 11] of 1.9 ± 0.1 h. The AUC(0-t) [2, 11] was 0.36 ± 0.06 µM·h, the “MAT (mean absorption time = MRTpo–MRTiv)” value ([2]; po 50 mg/kg) was 0.92 ± 0.20 h and the “quantifiable/detectable in plasma up to” value ([2]; po group, parent drug) was “up to 7 h”. The EC50 [3] was greater than 241000 nM, the IC50 ([4]; asexual blood stage Pf W2, multidrug resistant, SYBR Green I, ± SEM) was 1.75 ± 0.27 nM and the “RI = IC50 W2/IC50 NF54” value [4] was 1.58. The “mice with prolonged survival, reactivation stage” value (Toxoplasma gondii (Tg) [5]) was 80%, the IC50 ([6]; asexual blood stage Pf K1, multidrug resistant, SYBR Green I, ± SEM) was 1.6 ± 0.4 nM and the “RI (resistance index) = IC50 K1/IC50 NF54” value [6] was 1.47. The IC50 [7] was 16.4 ± 1 nM, the EC50 (Toxoplasma gondii (Tg) [8]) was 108 nM and the “P. yoelii ED90 po” value ([9]; Peters four-day test, mice, oral, ref S4 (24)) was 2.0 mg/kg. The “P. yoelii ED90 sc” value ([9]; Peters four-day test, mice, subcutaneous, ref S4 (24)) was 0.61 mg/kg and the “P. yoelii artesunate index sc” value ([9]; ref S4) was 36.0.
